Assay results from the CheMixHub viscosity set.

Assay: xn = mol fraction of the nth substance listed

CCCCCCC(C)O (stereo not drawn) + Clc1ccccc1
viscosity [mPa·s], 101 kPa
Conditions	298.15 K	303.15 K
x2 = 0.0637	5.573	4.507
x2 = 0.1236	4.736	3.906
x2 = 0.1894	3.906	3.291
x2 = 0.2474	3.319	2.818
x2 = 0.3131	2.772	2.369
x2 = 0.374	2.378	1.981
x2 = 0.4525	1.947	1.641
x2 = 0.5014	1.737	1.467
x2 = 0.5867	1.452	1.238
x2 = 0.6813	1.203	1.08
x2 = 0.7429	1.085	1
x2 = 0.8098	0.968	0.929
x2 = 0.8776	0.872	0.867
x2 = 0.9446	0.803	0.786

C[N+](C)(CCO)CCO.[Cl-] + NC(N)=O
100 kPa, x1 = 0.5
Conditions	viscosity [mPa·s]
293.15 K	3865
298.15 K	2440
303.15 K	1596
308.15 K	1065
313.15 K	724
318.15 K	514
323.15 K	368

CC(=O)[O-].C[N+](C)(C)CCO + O
Conditions	viscosity [mPa·s]
298 K, 101.33 kPa, x2 = 0.8	30.5

CC(O)CCO (stereo not drawn) + O
viscosity [mPa·s]
Conditions	298.15 K	303.15 K	308.15 K	313.15 K	318.15 K
101 kPa, x1 = 0.0996	3.694	3.073	2.633	2.297	2.019
101 kPa, x1 = 0.1982	8.539	6.787	5.587	4.737	4.034
101 kPa, x1 = 0.2991	15.27	11.94	9.627	8.017	6.671
101 kPa, x1 = 0.4036	23.16	18.3	14.52	11.63	9.592
101 kPa, x1 = 0.4489	28.48	23.28	17.57	13.92	11.4
101 kPa, x1 = 0.6118	47.9	35.02	27.68	21.38	17.22
101 kPa, x1 = 0.6989	56.8	42.27	33.27	25.42	20.24
101 kPa, x1 = 0.7986	67.85	51.92	38.78	29.8	23.4
101 kPa, x1 = 0.8971	82.56	62.2	46.95	35.92	27.87
101.3 kPa, x2 = 0.045	–	–	–	–	28.95
101.3 kPa, x2 = 0.2499	–	–	–	–	20.85

CN(C)CCN(C)C + O
viscosity [mPa·s], 100 kPa
Conditions	293.15 K	303.15 K	313.15 K	323.15 K
x1 = 0.001	1.041	0.83	0.679	0.564
x1 = 0.01	1.375	1.143	0.941	0.732
x1 = 0.025	2.406	1.734	1.303	1.012
x1 = 0.05	5.033	3.269	2.032	1.409
x1 = 0.075	8.363	4.972	2.688	1.769
x1 = 0.1	11.53	6.033	3.292	2.114
x1 = 0.2	12.82	7.744	4.885	3.185
x1 = 0.3	7.906	5.945	4.23	3.011
x1 = 0.399	3.497	2.56	1.9	1.45
x1 = 0.5	1.887	1.456	1.117	0.904
x1 = 0.601	1.344	1.064	0.853	0.69
x1 = 0.7	1.066	0.881	0.724	0.585
x1 = 0.8	0.859	0.733	0.625	0.52
x1 = 0.9	0.715	0.63	0.554	0.473

COCCn1cc[n+](C)c1.C[C@@H](O)[C@H](N)C(=O)[O-] + O
100 kPa, x2 = 0.6192
Conditions	viscosity [mPa·s]
298.15 K	766.5
303.15 K	499.5

C[N+](C)(C)CCO.NCCS(=O)(=O)[O-] + O
viscosity [mPa·s], 100 kPa
Conditions	x1 = 3.04e-05	x1 = 5.1e-05	x1 = 7.04e-05	x1 = 9.62e-05	x1 = 0.0001978	x1 = 0.0004282	x1 = 0.0006357	x1 = 0.0009005	x1 = 0.001375	x1 = 0.001632
293.15 K	1.014	1.017	1.019	1.022	1.028	1.036	1.041	1.046	1.052	1.054
298.15 K	0.904	0.907	0.91	0.913	0.922	0.932	0.939	0.946	0.954	0.958
303.15 K	0.811	0.814	0.817	0.82	0.828	0.839	0.846	0.853	0.861	0.863
308.15 K	0.737	0.742	0.745	0.749	0.76	0.771	0.776	0.781	0.786	0.789
313.15 K	0.675	0.68	0.684	0.688	0.699	0.709	0.715	0.72	0.723	0.724

Cc1cc[n+](CCCO)cc1.[Cl-] + O
viscosity [mPa·s], 100 kPa
Conditions	x1 = 0.001799	x1 = 0.00269	x1 = 0.003585	x1 = 0.005375	x1 = 0.007144	x1 = 0.008904
293.15 K	1.067	1.092	1.116	1.161	1.204	1.244
298.15 K	0.942	0.963	0.984	1.022	1.059	1.094
303.15 K	0.84	0.859	0.876	0.911	0.943	0.974
308.15 K	0.756	0.772	0.787	0.818	0.847	0.875
313.15 K	0.685	0.699	0.713	0.741	0.767	0.792

Cl.NNC(N)=O + O
viscosity [mPa·s], 101 kPa
Conditions	293.15 K	298.15 K	303.15 K	308.15 K	313.15 K	318.15 K
x1 = 0.000452	1.008	0.8953	0.8016	0.7228	–	0.6
x1 = 0.000904	1.014	0.9003	0.8058	0.7263	0.6589	0.6026
x1 = 0.00135	–	0.9052	0.81	0.7299	0.6619	0.6051
x1 = 0.001798	–	0.9101	0.8142	–	–	0.6077
x1 = 0.002249	–	0.915	0.8183	0.737	0.6679	0.6102
x1 = 0.00269	1.037	0.9199	0.8224	0.7404	0.6708	0.6127
x1 = 0.003585	1.049	0.9296	0.8306	0.7475	0.6767	0.6176
x1 = 0.004482	1.06	0.9395	0.8389	0.7543	0.6826	0.6226
x1 = 0.005372	1.072	0.9492	0.8472	0.7612	0.6884	0.6275
x1 = 0.006264	1.083	0.959	0.8554	0.7682	0.6944	0.6324
x1 = 0.007149	1.095	0.9687	0.8637	0.775	0.7001	0.6373

[K+].[K+].[O]=[Cr](=[O])([O-])[O][Cr](=[O])(=[O])[O-] + O
viscosity [mPa·s], 101 kPa
Conditions	x1 = 0.001	x1 = 0.003	x1 = 0.0068	x1 = 0.015
298.15 K	0.89	0.9	0.91	–
312.95 K	0.66	0.67	0.68	0.73

c1c[nH]cn1 + O
viscosity [mPa·s], 100 kPa
Conditions	x1 = 0.0286	x1 = 0.0621	x1 = 0.102	x1 = 0.15	x1 = 0.209
298.15 K	1.058	1.242	1.47	1.737	2.14
303.15 K	0.944	1.103	1.301	1.541	1.881
313.15 K	0.771	0.892	1.043	1.261	1.543
323.15 K	0.647	0.742	0.862	1.034	1.254
